{
  "source": "patent US5017687A",
  "about": "“Peptides for the detection of HTLV-1 infection” (Virovahl, S.A., priority 1988, dated 1991)",
  "key": {"[1]": {"tested_on": "HTLV-1 positive serum samples", "experiment": "immunoreactivity screening of eight synthesized peptides A-H with HTLV-1 positive sera", "assay_type": "binding, human", "from_the_text": "The four peptides were selected from among eight different synthesized peptides designated A-H which correspond to the HTLV-1 envelope glycoprotein. These peptides were selected using various criteria similar to the selection of useful HIV-1 or HIV-2 peptides, e.g. proximity to or containing a cysteine residue (location of cysteine in similar proteins from related organisms being relatively invariant) and proximity to glycosylation sites. Although such criteria for selection of peptides can rule out potentially nonuseful peptides and indicate potentially useful peptides, further testing was required to identify which of the eight peptides would display immunoreactivity to HTLV-1 positive serum samples. The eight peptides were synthesized in the priority A through H with the […] believed to be least antigenic based on the above-criteria."}, "[2]": {"tested_on": "antibodies to HTLV-1", "experiment": "ELISA immunologic reactivity of peptides gpAHTLV-1, gpBHTLV-1 and gpCHTLV-1 with human sera (Table 2)", "assay_type": "binding", "conditions": "for Mean O.D.405 of Negative Sera / cut off = Mean O.D.405 of Negative Sera + 6 × S.D.: negative sera of Table 2; for confirmed positive HTLV-1 serum samples reacted with peptide: reactive/tested, 6 HTLV-1 positive sera", "procedure": "(§1) Polylysine at a concentration of 1 mg/ml was added to the microtiter plates and allowed to incubate for 30 minutes. The polylysine was then discarded and peptide gpAHTLV-1 was added to the wells in a concentration of 10 to 100 μg/ml for coating. After the peptide incubated in the well for a length of time sufficient to allow the peptide to become bonded to the well, the peptide solution was removed and a solution of glutaraldehyde, which stabilizes the peptide attachment to the wells, was added for 15 minutes. The glutaraldehyde solution was then removed, the wells washed with buffer, and a mixture of glycine and bovine serum albumin (BSA) was added which served to block unbound sites in the wells and minimize spurious reactions during the ELISA test per se. After a final washing step, the plates were ready to use.\n(§2) A convenient variation of known ELISA methods was used with the microtiter plates prepared as above. Serum samples from individuals which had been diluted 1:50 in PBS (phosphate buffered saline) containing 0.05% polyoxyethylenesorbitan monolaurate (Tween 20) and 1% BSA were added to each well and allowed to incubate for 90 minutes at 37° C. in a humidified atmosphere. The diluted serum samples were then removed from the plates and the wells washed three times with PBS containing 0.05% Tween 20. A conjugated anti-human immunoglobulin (Ig) antibody was then added to the wells and allowed to incubate for 90 minutes. The conjugated antibody was produced in a goat or rabbit and was specific for human IgG, IgM, immunoglobulin light chains, or combinations thereof. Preferably, alkaline-phophatase conjugated anti-human IgG (from Dakopatts) diluted 1:500 for use in PBS containing 0.05% Tween 20 and 1% BSA was used in the ELISA. After the conjugate had incubated a sufficient length of time to react with bound human antibodies, the plates were washed three times as above. In order to detect antibodies to HTLV-1 in the human serum that react with the peptide gpAHTLV-1 used as the antigen, (i.e. positive reactions), a chromogenic substrate, alkaline phosphatase substrate (Sigma Cat. No. 104 tablets) dissolved in a Na carbonate/MgCl2 buffer and adjusted to a concentration of 1 μg/ml which is cleaved by the alkaline phosphatase enzyme attached to the anti-human Ig antibody to yield a colored product, was added. After incubation for approximately 40 minutes at room temperature, positive reactions indicated the presence of antibodies in the sample reactive with the antigen. A yellow to orange to reddish-brown color in each well indicating a positive reaction, was read in a spectrophotometer at 405 nm to quantify the reaction. Spectrophotometric readings were adjusted to correct for background reactions.\nPeptides gpAHTLV-1, gpBHTLV-1, gpCHTLV-1, synthesized as described in Example 1, were run in parallel ELISA tests as described in Example 2 against 6 serum samples positive for antibodies to HTLV-1, 8 serum samples positive for antibodies to HIV-1 and 10 blood donor sera negative for HIV-1/HIV-2."}, "[3]": {"experiment": "storage stability of peptide-coated microtiter plates", "assay_type": "physicochemical", "conditions": "peptide-coated microtiter plates stored for several months", "procedure": "as §1"}, "[4]": {"tested_on": "antibodies to HTLV-1", "experiment": "ELISA absorbance on Japanese HTLV-1 sera using gpHHTLV-1 (Table 4)", "assay_type": "binding, human", "conditions": "serum 1248, negative control, Western blot -; diluted 1/50", "procedure": "as §1\n(§3) A convenient variation of known ELISA methods was used with the microtiter plates prepared as above. […] A yellow to orange to reddish-brown color in each well indicating a positive reaction, was read in a spectrophotometer at 405 nm to quantify the reaction. Spectrophotometric readings were adjusted to correct for background reactions.\nAbsorbance values on Japanese HTLV-1 sera were measured in ELISA using gpHHTLV-1 as well as Du-Pont HTLV-1 ELISA and Western blot. […]"}, "[5]": {"tested_on": "antibodies to HTLV-1", "experiment": "ELISA absorbance on sera and CSF from patients with ATL and TSP using gpHHTLV-1 (Table 5)", "assay_type": "binding, human", "conditions": "neg CSF 8, 19, 21; diluted 1/20", "procedure": "as §1, §3\nAbsorbance values on sera and CSF from patients with ATL and TSP were measured in ELISA using gpHHTLV-1 sera diluted 1/50, CSF sera was diluted 1/20."}, "[6]": {"tested_on": "antibodies to HTLV-1", "experiment": "ELISA reactivity of gpHHTLV-1 with confirmed positive and true negative sera/CSF (Table 3)", "assay_type": "binding, human", "procedure": "as §1, §2\nPeptide gpHHTLV-1 having the amino acid sequence: […]OH was synthesized as described in Example 1 and used in an ELISA test as described in Example 2 to measure its immunologic reactivity against confirmed Japanese HTLV-sera and sera from U.S.A. and Europe from patients with Adult T-cell Leukemia Tropical Spastic Paraparesis (TSP) and cerebrospinal fluids (CSF)."}, "[7]": {"tested_on": "HTLV-1 patient sera", "conditions": "reactive/tested; Palker et al., 1986; cited from earlier work"}, "[8]": {"tested_on": "sera from HTLV-1 positive patients", "conditions": "reactive/tested; Copeland et al., 1986; cited from earlier work"}},
  "note": "Several values for one entry are separate records, joined by “and”; a condition that tells them apart may be missing. Equal values may be shown once. Ends that are not written are not given here.",
  "data": [
    {"substance": "Gly-Leu-Asp-Leu-Leu-Phe-Trp-Glu-Gln-Gly-Gly-Leu-Cys-Lys-Ala-Leu-Gln-Glu-Gln-Cys-Arg-Phe-Pro-Asn-Cys-OH (GLDLLFWEQGGLCKALQEQCRFPNC-OH; cysteine pairing not given here) [gpAHTLV-1]", "values": [
      {"measurement": "usefulness for diagnosis of HTLV-1 infection (in words)", "setting": "[1]", "value": "useful for diagnosis of HTLV-1 infection"},
      {"measurement": "Mean O.D.405 of Negative Sera", "setting": "[2]", "value": 0.124, "unit": "O.D.405"},
      {"measurement": "cut off = Mean O.D.405 of Negative Sera + 6 × S.D.", "setting": "[2]", "value": 0.490, "unit": "O.D.405"},
      {"measurement": "confirmed positive HTLV-1 serum samples reacted with peptide", "setting": "[2]", "value": "6/6"},
      {"measurement": "antigenic activity of coated peptide after storage (in words)", "setting": "[3]", "value": "without any decrease in antigenic activity"}
    ]},
    {"substance": "Leu-Asn-Thr-Glu-Pro-Ser-Gln-Leu-Pro-Pro-Thr-Ala-Pro-Pro-Leu-Leu-Pro-His-Ser-Asn-Leu-Asp-His-Ile-Cys-OH (LNTEPSQLPPTAPPLLPHSNLDHIC-OH) [gpHHTLV-1]", "values": [
      {"measurement": "usefulness for diagnosis of HTLV-1 infection (in words)", "setting": "[1]", "value": "useful for diagnosis of HTLV-1 infection"},
      {"measurement": "Absorbance values in gpHHTLV-1 ELISA", "setting": "[4]", "value": 0.109},
      {"measurement": "gpHHTLV-1 ELISA absorbance", "setting": "[5]", "value": "0.033 and 0.039 and 0.056"},
      {"measurement": "Positive in ELISA", "setting": "[6]; ATL CSF, positive/tested", "value": "1/1"},
      {"measurement": "Positive in ELISA (percent)", "setting": "[6]; Japanese HTLV-1 sera", "value": 69, "unit": "%"},
      {"measurement": "Positive in ELISA", "setting": "[6]; Japanese HTLV-1 sera, positive/tested", "value": "22/32"},
      {"measurement": "Positive in ELISA", "setting": "[6]; TSP CSF, positive/tested", "value": "4/4"},
      {"measurement": "Positive in ELISA", "setting": "[6]; TSP sera, positive/tested", "value": "4/4"},
      {"measurement": "known positive sera confirmed HTLV-1 positive (in words)", "setting": "[6]; Table 3 as summarised in text", "value": "all known positive sera were confirmed HTLV-1 positive"},
      {"measurement": "Positive in ELISA", "setting": "[6]; true negative: 4 EB virus IgM positive sera", "value": "0/4"},
      {"measurement": "Positive in ELISA", "setting": "[6]; true negative: 4 Leukemia patients sera", "value": "0/4"},
      {"measurement": "Positive in ELISA", "setting": "[6]; true negative: 4 Rheumatoid factor positive sera", "value": "0/4"},
      {"measurement": "Positive in ELISA", "setting": "[6]; true negative: 4 Transplant recipients sera", "value": "0/4"},
      {"measurement": "Positive in ELISA", "setting": "[6]; true negative: 8 CSF (aseptic meningitis)", "value": "0/8"},
      {"measurement": "Positive in ELISA", "setting": "[6]; true negative: 8 HIV-2 positive sera", "value": "0/8"},
      {"measurement": "Positive in ELISA", "setting": "[6]; true negative: 28 blood donor sera", "value": "0/28"},
      {"measurement": "Positive in ELISA", "setting": "[6]; true negative: 30 HIV-1 positive sera", "value": "0/30"}
    ]},
    {"substance": "PYVEPTAPQVL [SP-71]", "values": [
      {"measurement": "HTLV-1 patient sera reacting in RIA", "setting": "[7]", "value": "8/9"}
    ]},
    {"substance": "Pro-Pro-Phe-Ser-Leu-Ser-Pro-Val-Pro-Thr-Leu-NH2 (PPFSLSPVPTL-NH2) [SP-70]", "values": [
      {"measurement": "sera from HTLV-1 positive patients reacting", "setting": "[8]", "value": "4/12"}
    ]},
    {"substance": "X-Trp-Thr-His-Cys-Phe-Asp-Pro-Gln-Ile-Gln--Ala-Ile-Val-Ser-Ser-Pro-Cys-His-Asn-Ile-Leu-Y-Z (WTHCFDPQIQAIVSSPCHNIL; not fully specified (N-terminus, C-terminus); cysteine pairing not given here; also: end groups X, Y, Z left open in the general formula) [gpBHTLV-1]", "values": [
      {"measurement": "usefulness for diagnosis of HTLV-1 infection (in words)", "setting": "[1]", "value": "useful for diagnosis of HTLV-1 infection"},
      {"measurement": "Mean O.D.405 of Negative Sera", "setting": "[2]", "value": 0.088, "unit": "O.D.405"},
      {"measurement": "cut off = Mean O.D.405 of Negative Sera + 6 × S.D.", "setting": "[2]", "value": 0.298, "unit": "O.D.405"},
      {"measurement": "confirmed positive HTLV-1 serum samples reacted with peptide", "setting": "[2]", "value": "5/6"}
    ]},
    {"substance": "X-Tyr-Thr-Cys-Ile-Val-Cys-Ile-Asp-Arg-Ala-Ser-Leu-Ser-Thr-Trp-His-Val-Leu- Tyr-Ser-Pro-Y-Z (YTCIVCIDRASLSTWHVLYSP; not fully specified (N-terminus, C-terminus); cysteine pairing not given here; also: end groups X, Y, Z left open in the general formula) [gpCHTLV-1]", "values": [
      {"measurement": "usefulness for diagnosis of HTLV-1 infection (in words)", "setting": "[1]", "value": "useful for diagnosis of HTLV-1 infection"},
      {"measurement": "Mean O.D.405 of Negative Sera", "setting": "[2]", "value": 0.116, "unit": "O.D.405"},
      {"measurement": "cut off = Mean O.D.405 of Negative Sera + 6 × S.D.", "setting": "[2]", "value": 0.368, "unit": "O.D.405"},
      {"measurement": "confirmed positive HTLV-1 serum samples reacted with peptide", "setting": "[2]", "value": "5/6"}
    ]}
  ]
}
